# Reference: patent publication US6737383B1, “Herbicidal oxadiazolidines” (priority 1999, dated 2004)
# Tests used:
# Alexandergrass = assay: Test D Alexandergrass; format: in vivo, Brachiaria plantaginea; details: Preemergence, 0 to 100 scale
# Outline: (§1)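 Greenhouse pots, seeds in sandy loam; compounds formulated in non-phytotoxic solvent with surfactant; preemergence treatments went on the soil surface within one day of planting. Injury rated visually 14 to 21 days after application on a 0 (none) to 100 (complete control) scale.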
# bermuda-grass = assay: Test D bermudagrass; format: in vivo, Cynodon dactylon; details: Preemergence, 0 to 100 scale
# Outline: as §1
# common pursiane = assay: Test D common purslane; format: in vivo, Portulaca oleracea; details: Preemergence, 0 to 100 scale
# Outline: as §1
# common ragweed = assay: Test D common ragweed; format: in vivo, Ambrosia elatior; details: Preemergence, 0 to 100 scale
# Outline: as §1
# dallisgrass = assay: Test D dallisgrass; format: in vivo, Paspalum dilatatum; details: Preemergence, 0 to 100 scale
# Outline: as §1
# goosegrass = assay: Test D goosegrass; format: in vivo, Eleusine indica; details: Preemergence, 0 to 100 scale
# Outline: as §1
# guineagrass = assay: Test D guineagrass; format: in vivo, Panicum maximum; details: Preemergence, 0 to 100 scale
# Outline: as §1
# itchgrass = assay: Test D itchgrass; format: in vivo, Rottboellia exaltata; details: Preemergence, 0 to 100 scale
# Outline: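 Scoring used a 0–100 visual injury scale, with 0 meaning no effect and 100 complete control, assessed 14–21 days after application alongside untreated pots. Preemergence treatments went onto sandy loam surfaces of separately potted seeds within a day of sowing.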
# Johnson grass = assay: Test D Johnson grass; format: in vivo, Sorghum halepense; details: Preemergence, 0 to 100 scale
# Outline: as §1
# large crabgrass = assay: Test D large crabgrass; format: in vivo, Digitaria sanguinalis; details: Preemergence, 0 to 100 scale
# Outline: as §1
# pitted morningglory = assay: Test D pitted morningglory; format: in vivo, Ipomoea lacunosa; details: Preemergence, 0 to 100 scale
# Outline: as §1
# purple nutsedge = assay: Test D purple nutsedge; format: in vivo, Cyperus rotundus; details: Preemergence, 0 to 100 scale
# Outline: as §1
# surinam grass = assay: Test D surinam grass; format: in vivo, Brachiaria decumbens; details: Preemergence, 0 to 100 scale
# Outline: as §1
# tall mallow = assay: Test D tall mallow; format: in vivo, Malva sylvestris; details: Preemergence, 0 to 100 scale
# Outline: as §1
# Green foxtail [1] = assay: Test D green foxtail; format: in vivo; details: Preemergence, 0 to 100 scale
# Outline: as §1
# Green foxtail [2] = assay: Test D green foxtail; format: in vivo
# Outline: as §1
# [3] = Rate 16 g/ha, 0 no injury, 100 complete control
# [4] = Rate 32 g/ha, 0 no injury, 100 complete control
# [5] = Rate 64 g/ha, 0 no injury, 100 complete control
# [6] = Rate 64 g/ha, Preemergence; 0 to 100 scale, 0 no injury, 100 complete control
compound,measurement,setting,value
CC(C)N(C(=O)n1oc(=O)n(C2CCCCC2)c1=O)c1ccccc1 [Compound 112],"Plant response rating, Alexandergrass",Alexandergrass; [3],0
same,"Plant response rating, Alexandergrass",Alexandergrass; [4],0
same,"Plant response rating, Alexandergrass",Alexandergrass; [5],0
same,"Plant response rating, Alexandergrass",Alexandergrass; Rate 250 g/ha,80
same,"Plant response rating, Alexandergrass",Alexandergrass; Rate 500 g/ha,100
same,"Plant response rating, Bermudagrass",bermuda-grass; [3],60
same,"Plant response rating, Bermudagrass",bermuda-grass; [4],75
same,"Plant response rating, Bermudagrass",bermuda-grass; [5],85
same,"Plant response rating, Bermudagrass",bermuda-grass; Rate 250 g/ha,98
same,"Plant response rating, Bermudagrass",bermuda-grass; Rate 500 g/ha,100
same,"Plant response rating, C. purslane",common pursiane; [3],0
same,"Plant response rating, C. purslane",common pursiane; [4],0
same,"Plant response rating, C. purslane",common pursiane; [5],0
same,"Plant response rating, C. purslane",common pursiane; Rate 250 g/ha,0
same,"Plant response rating, C. purslane",common pursiane; Rate 500 g/ha,0
same,"Plant response rating, C. ragweed",common ragweed; [3],0
same,"Plant response rating, C. ragweed",common ragweed; [4],0
same,"Plant response rating, C. ragweed",common ragweed; [5],0
same,"Plant response rating, C. ragweed",common ragweed; Rate 250 g/ha,0
same,"Plant response rating, C. ragweed",common ragweed; Rate 500 g/ha,0
same,"Plant response rating, Dallisgrass",dallisgrass; [3],30
same,"Plant response rating, Dallisgrass",dallisgrass; [4],65
same,"Plant response rating, Dallisgrass",dallisgrass; [5],70
same,"Plant response rating, Dallisgrass",dallisgrass; Rate 250 g/ha,100
same,"Plant response rating, Dallisgrass",dallisgrass; Rate 500 g/ha,100
same,"Plant response rating, Goosegrass",goosegrass; [3],40
same,"Plant response rating, Goosegrass",goosegrass; [4],40
same,"Plant response rating, Goosegrass",goosegrass; [5],85
same,"Plant response rating, Goosegrass",goosegrass; Rate 250 g/ha,100
same,"Plant response rating, Goosegrass",goosegrass; Rate 500 g/ha,100
same,"Plant response rating, Guineagrass",guineagrass; [3],0
same,"Plant response rating, Guineagrass",guineagrass; [4],0
same,"Plant response rating, Guineagrass",guineagrass; [5],40
same,"Plant response rating, Guineagrass",guineagrass; Rate 250 g/ha,90
same,"Plant response rating, Guineagrass",guineagrass; Rate 500 g/ha,100
same,"Plant response rating, Itchgrass",itchgrass; [3],0
same,"Plant response rating, Itchgrass",itchgrass; [4],0
same,"Plant response rating, Itchgrass",itchgrass; [5],0
same,"Plant response rating, Itchgrass",itchgrass; Rate 250 g/ha,0
same,"Plant response rating, Itchgrass",itchgrass; Rate 500 g/ha,80
same,"Plant response rating, Johnsongrass",Johnson grass; [3],0
same,"Plant response rating, Johnsongrass",Johnson grass; [4],0
same,"Plant response rating, Johnsongrass",Johnson grass; [5],0
same,"Plant response rating, Johnsongrass",Johnson grass; Rate 250 g/ha,0
same,"Plant response rating, Johnsongrass",Johnson grass; Rate 500 g/ha,50
same,"Plant response rating, Large crabgrass",large crabgrass; [3],10
same,"Plant response rating, Large crabgrass",large crabgrass; [4],10
same,"Plant response rating, Large crabgrass",large crabgrass; [5],10
same,"Plant response rating, Large crabgrass",large crabgrass; Rate 250 g/ha,100
same,"Plant response rating, Large crabgrass",large crabgrass; Rate 500 g/ha,100
same,"Plant response rating, P. morninglory",pitted morningglory; [3],0
same,"Plant response rating, P. morninglory",pitted morningglory; [4],0
same,"Plant response rating, P. morninglory",pitted morningglory; [5],0
same,"Plant response rating, P. morninglory",pitted morningglory; Rate 250 g/ha,0
same,"Plant response rating, P. morninglory",pitted morningglory; Rate 500 g/ha,10
same,"Plant response rating, Purple nutsedge",purple nutsedge; [3],0
same,"Plant response rating, Purple nutsedge",purple nutsedge; [4],0
same,Purple nutsedge plant response rating,purple nutsedge; [5],0
same,"Plant response rating, Purple nutsedge",purple nutsedge; Rate 250 g/ha,0
same,"Plant response rating, Purple nutsedge",purple nutsedge; Rate 500 g/ha,40
same,"Plant response rating, Surinam grass",surinam grass; [3],0
same,"Plant response rating, Surinam grass",surinam grass; [4],0
same,Surinam grass plant response rating,surinam grass; [5],0
same,"Plant response rating, Surinam grass",surinam grass; Rate 250 g/ha,0
same,"Plant response rating, Surinam grass",surinam grass; Rate 500 g/ha,98
same,"Plant response rating, Tall Mallow",tall mallow; [3],0
same,"Plant response rating, Tall Mallow",tall mallow; [4],0
same,Tall Mallow plant response rating,tall mallow; [5],0
same,"Plant response rating, Tall Mallow",tall mallow; Rate 250 g/ha,0
same,"Plant response rating, Tall Mallow",tall mallow; Rate 500 g/ha,20
same,"Plant response rating, Green foxtail",Green foxtail [1]; Rate 250 g/ha,98
same,"Plant response rating, Green foxtail",Green foxtail [1]; Rate 500 g/ha,0
same,"Plant response rating, Green foxtail","Green foxtail [2]; Preemergence; Rate 16 g/ha; 0 to 100 scale, 0 no injury, 100 complete control",0
same,"Plant response rating, Green foxtail","Green foxtail [2]; Preemergence; Rate 32 g/ha; 0 to 100 scale, 0 no injury, 100 complete control",0
same,"Plant response rating, Green foxtail","Green foxtail [2]; Rate 16 g/ha; Preemergence; 0 to 100 scale, 0 no injury, 100 complete control",0
same,"Plant response rating, Green foxtail","Green foxtail [2]; Rate 32 g/ha; Preemergence; 0 to 100 scale, 0 no injury, 100 complete control",98
same,Green foxtail plant response rating,Green foxtail [2]; [6],85
same,"Plant response rating, Green foxtail",Green foxtail [2]; [6],85
same,"Plant response rating, Green foxtail",Green foxtail [2]; Rate 250 g/ha; Preemergence; 0 to 100 scale,98
same,"Plant response rating, Green foxtail","Green foxtail [2]; Rate 500 g/ha, Preemergence; 0 to 100 scale",0
